Data from US20210045385A1, “PYRIDAZINONE-SUBSTITUTED KETOXIMES AS HERBICIDES” (FMC Corporation, priority 2018, published 2021).

What was measured:
Format in all cases: in vivo
[1] = tested on: barnyardgrass (Echinochloa crus-galli); test: Test C preemergence, visual plant response rating; details: Test C, 0 is no effect, 100 is complete control
Method in brief: (§1)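 Visual injury on a 0 (no effect) to 100 (complete control) scale versus untreated controls, scored approximately 10 d after treatment under greenhouse conditions. Treatments used surfactant-containing non-phytotoxic solvent formulations, sprayed onto loam–sand soil preemergence or onto one- to two-leaf plants 2–10 cm tall postemergence.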

[2] = tested on: ragweed (common ragweed, Ambrosia artemisiifolia); test: Test C preemergence, visual plant response rating; details: Test C, 0 is no effect, 100 is complete control
Method in brief: as §1

[3] = tested on: pigweed (Amaranthus retroflexus); test: Test C preemergence, visual plant response rating; details: Test C, 0 is no effect, 100 is complete control
Method in brief: as §1

[4] = tested on: Italian ryegrass (Lolium mutiflorum); test: Test C preemergence, visual plant response rating; details: Test C, 0 is no effect, 100 is complete control
Method in brief: as §1

kochia (Bassia scoparia) [5] = test: Test C preemergence, visual plant response rating; details: Test C, 0 is no effect, 100 is complete control
Method in brief: as §1

[6] = tested on: foxtail, giant (giant foxtail, Setaria faberi); test: Test C preemergence, visual plant response rating; details: Test C, 0 is no effect, 100 is complete control
Method in brief: as §1

[7] = tested on: wheat (Triticum aestivum); test: Test C postemergence, visual plant response rating
Method in brief: as §1

[8] = tested on: barnyardgrass (Echinochloa crus-galli); test: Test C postemergence, visual plant response rating
Method in brief: as §1

[9] = tested on: ragweed (common ragweed, Ambrosia artemisiifolia); test: Test C postemergence, visual plant response rating
Method in brief: as §1

[10] = tested on: pigweed (Amaranthus retroflexus); test: Test C postemergence, visual plant response rating
Method in brief: as §1

corn (Zea mays) = test: Test C postemergence, visual plant response rating
Method in brief: as §1

[11] = tested on: Italian ryegrass (Lolium mutiflorum); test: Test C postemergence, visual plant response rating
Method in brief: as §1

kochia (Bassia scoparia) [12] = test: Test C postemergence, visual plant response rating
Method in brief: as §1

[13] = tested on: foxtail, giant (giant foxtail, Setaria faberi); test: Test C postemergence, visual plant response rating
Method in brief: as §1

[14] = tested on: blackgrass (Alopecurus myosuroides); test: Test C postemergence, visual plant response rating
Method in brief: as §1

[15] = tested on: galium (catchweed bedstraw, Galium aparine); test: Test C postemergence, visual plant response rating
Method in brief: as §1

[16] = tested on: barnyardgrass (Echinochloa crus-galli); test: Test D flooded paddy test, visual plant response rating; details: 250 g ai/ha, scale 0 to 100 (0 no effect, 100 complete control), 13 to 15 d
Method in brief: (§2)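 Visual injury scores, 0 (no effect) to 100 (complete control), were assigned after 13 to 15 d in the greenhouse by comparison with controls. Test compounds had been added to paddy water covering soil by 3 cm at the 2-leaf stage.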

[17] = tested on: sedge umbrella (small-flower umbrella sedge, Cyperus difformis); test: as above; details: 250 g ai/ha, scale 0 to 100 (0 no effect, 100 complete control), 13 to 15 d
Method in brief: as §2

rice (Oryza sativa) = test: as above; details: 250 g ai/ha, scale 0 to 100 (0 no effect, 100 complete control), 13 to 15 d
Method in brief: as §2

[18] = tested on: duck salad (Heteranthera limosa); test: as above; details: 250 g ai/ha, scale 0 to 100 (0 no effect, 100 complete control), 13 to 15 d
Method in brief: as §2

[19] = Test C, postemergence, 125 g ai/ha

| SMILES | Barnyardgrass plant response rating (0 to 100 scale) ([1]; 31 g ai/ha) | Barnyardgrass plant response rating (0 to 100 scale) ([1]; 125 g ai/ha) | Ragweed plant response rating (0 to 100 scale) ([2]; 31 g ai/ha) | Ragweed plant response rating (0 to 100 scale) ([2]; 125 g ai/ha) | Pigweed plant response rating (0 to 100 scale) ([3]; 31 g ai/ha) | Pigweed plant response rating (0 to 100 scale) ([3]; 125 g ai/ha) | Ryegrass, Italian plant response rating (0 to 100 scale) ([4]; 31 g ai/ha) | Ryegrass, Italian plant response rating (0 to 100 scale) ([4]; 125 g ai/ha) | Kochia plant response rating (0 to 100 scale) (kochia (Bassia scoparia) [5]; 31 g ai/ha) | Kochia plant response rating (0 to 100 scale) (kochia (Bassia scoparia) [5]; 125 g ai/ha) | Foxtail, Giant plant response rating (0 to 100 scale) ([6]; 31 g ai/ha) | Foxtail, Giant plant response rating (0 to 100 scale) ([6]; 125 g ai/ha) | Wheat plant response rating (0 to 100 scale) ([7]; Postemergence, 31 g ai/ha) | Wheat plant response rating (0 to 100 scale) [7, 19] | Barnyardgrass plant response rating (0 to 100 scale) ([8]; Postemergence, 31 g ai/ha) | Barnyardgrass plant response rating (0 to 100 scale) [8, 19] | Ragweed plant response rating (0 to 100 scale) ([9]; Postemergence, 31 g ai/ha) | Ragweed plant response rating (0 to 100 scale) [9, 19] | Pigweed plant response rating (0 to 100 scale) ([10]; Postemergence, 31 g ai/ha) | Pigweed plant response rating (0 to 100 scale) [10, 19] | also measured |
| --- | --- | --- | --- | --- | --- | --- | --- | --- | --- | --- | --- | --- | --- | --- | --- | --- | --- | --- | --- | --- | --- |
| C#CCO/N=C(/c1cccc(/C=C/Cl)c1)c1c(O)c(C)nn(C)c1=O [Compound 253] | 0 | 0 | 0 | 0 | 0 | 80 | 0 | 30 | 0 | 0 | 0 | 10 | 0 | 30 | 10 | 40 | 30 | 40 | 50 | 70 | Corn plant response rating (0 to 100 scale) (corn (Zea mays); Postemergence, 31 g ai/ha): 0; Corn plant response rating (0 to 100 scale) (corn (Zea mays); [19]): 0; Ryegrass, Italian plant response rating (0 to 100 scale) ([11]; Postemergence, 31 g ai/ha): 10; Ryegrass, Italian plant response rating (0 to 100 scale) [11, 19]: 60; Kochia plant response rating (0 to 100 scale) (kochia (Bassia scoparia) [12]; Postemergence, 31 g ai/ha): 20; Kochia plant response rating (0 to 100 scale) (kochia (Bassia scoparia) [12]; [19]): 60; Foxtail, Giant plant response rating (0 to 100 scale) ([13]; Postemergence, 31 g ai/ha): 20; Foxtail, Giant plant response rating (0 to 100 scale) [13, 19]: 50; Blackgrass plant response rating (0 to 100 scale) ([14]; Postemergence, 31 g ai/ha): 20; Blackgrass plant response rating (0 to 100 scale) [14, 19]: 60; Galium plant response rating (0 to 100 scale) ([15]; Postemergence, 31 g ai/ha): 30; Galium plant response rating (0 to 100 scale) [15, 19]: 50; Plant response rating, Barnyardgrass (Flood) [16]: 0; Plant response rating, Sedge, Umbrella (Flood) [17]: 0; Plant response rating, Rice (Flood) (rice (Oryza sativa)): 0; Plant response rating, Ducksalad (Flood) [18]: 0 |
| C#CCO/N=C(\c1cccc(/C=C/Cl)c1)c1c(O)c(C)nn(C)c1=O [Compound 254] | 0 | 0 | 40 | 90 | 0 | 10 | 20 | 60 | 0 | 0 | 0 | 40 | 30 | 60 | 30 | 50 | 30 | 50 | 20 | 70 | Corn plant response rating (0 to 100 scale) (corn (Zea mays); Postemergence, 31 g ai/ha): 0; Corn plant response rating (0 to 100 scale) (corn (Zea mays); [19]): 10; Ryegrass, Italian plant response rating (0 to 100 scale) ([11]; Postemergence, 31 g ai/ha): 20; Ryegrass, Italian plant response rating (0 to 100 scale) [11, 19]: 70; Kochia plant response rating (0 to 100 scale) (kochia (Bassia scoparia) [12]; Postemergence, 31 g ai/ha): 50; Kochia plant response rating (0 to 100 scale) (kochia (Bassia scoparia) [12]; [19]): 70; Foxtail, Giant plant response rating (0 to 100 scale) ([13]; Postemergence, 31 g ai/ha): 20; Foxtail, Giant plant response rating (0 to 100 scale) [13, 19]: 60; Blackgrass plant response rating (0 to 100 scale) ([14]; Postemergence, 31 g ai/ha): 10; Blackgrass plant response rating (0 to 100 scale) [14, 19]: 70; Galium plant response rating (0 to 100 scale) ([15]; Postemergence, 31 g ai/ha): 0; Galium plant response rating (0 to 100 scale) [15, 19]: 40; Plant response rating, Barnyardgrass (Flood) [16]: 0; Plant response rating, Sedge, Umbrella (Flood) [17]: 0; Plant response rating, Rice (Flood) (rice (Oryza sativa)): 0; Plant response rating, Ducksalad (Flood) [18]: 0 |
